# Measured values: PubChem BioAssay (NCI)
#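 Assay format: 96-well plates, 48-hour exposure. TGI: concentration producing complete growth inhibition.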 The source made the active and inactive calls. Cut-off read from the data, not from the text of the source: active = GI50 below about 0.43 µM; inactive = the rest.
# Experiments:
# Assay in all cases: growth of human tumour cells (NCI), 48 h
# [1] = test system: PC-3 prostate
# [2] = test system: NCI-H23 lung
# [3] = test system: RXF 393 renal
# [4] = test system: NCI/ADR-RES ovarian
# [5] = test system: U251 CNS
# [6] = test system: HCT-15 colon
# [7] = test system: SK-OV-3 ovarian
# [8] = test system: SF-295 CNS
# [9] = test system: MCF7 breast
# [10] = test system: UACC-257 melanoma
# [11] = test system: SK-MEL-5 melanoma
# [12] = test system: 786-0 renal
# [13] = test system: SNB-75 CNS
# [14] = test system: SR leukemia
# [15] = test system: A549 NSCLC
# [16] = test system: DU-145 prostate
# [17] = test system: SN12C renal
# [18] = test system: SF-539 CNS
# [19] = test system: SNB-19 CNS
# [20] = test system: UO-31 renal
# [21] = test system: MALME-3M melanoma
# [22] = test system: HL-60(TB) leukemia
# [23] = test system: KM12 colon
# [24] = test system: BT-549 breast
# [25] = test system: NCI-H522 lung
# [26] = test system: OVCAR-3 ovarian
# [27] = test system: OVCAR-8 ovarian
# [28] = test system: HT29 colon
# [29] = test system: LOX IMVI melanoma
# [30] = test system: HCC-2998 colon
# [31] = test system: SK-MEL-28 melanoma
# [32] = test system: NCI-H226 lung
# [33] = test system: K-562 leukemia
# [34] = test system: RPMI-8226 leukemia
# [35] = test system: MDA-MB-435
# [36] = test system: NCI-H460 lung
# [37] = test system: CCRF-CEM leukemia
# [38] = test system: HOP-62 NSCLC
# [39] = test system: IGROV1 ovarian
# [40] = test system: SW-620 colon
# [41] = test system: ACHN renal
# [42] = test system: MOLT-4 leukemia
# [43] = test system: MDA-N
# [44] = test system: SF-268 CNS
# [45] = test system: HS 578T breast
# [46] = test system: M14 melanoma
# [47] = test system: SK-MEL-2 melanoma
# [48] = test system: UACC-62 melanoma
# [49] = test system: T-47D breast
# [50] = test system: MDA-MB-231 breast
# [51] = test system: COLO 205 colon
# [52] = test system: OVCAR-5 ovarian
# [53] = test system: A498 renal
# [54] = test system: TK-10 renal
# [55] = test system: HOP-92 NSCLC
# [56] = test system: OVCAR-4 ovarian
# [57] = test system: CAKI-1 renal
# [58] = test system: HCT-116 colon
# [59] = test system: EKVX NSCLC
smiles,measurement,setting,value
COc1ccc2nc3c([N+](=O)[O-])ccc4c3c(c2c1)N(CCCN(C)C)C(=S)N4CCCN(C)C,TGI,[1],18 µM
same,TGI,[2],30 µM
same,TGI,[3],22.9 µM
same,TGI,[4],24.4 µM
same,TGI,[5],20.2 µM
same,TGI,[6],28.7 µM
same,TGI,[7],34.4 µM
same,TGI,[8],19.5 µM
same,TGI,[9],19.2 µM
same,TGI,[10],15.5 µM
same,TGI,[11],12.3 µM
same,TGI,[12],15.7 µM
same,TGI,[13],29.3 µM
same,TGI,[14],> 100 µM
same,TGI,[15],22.2 µM
same,TGI,[16],20.2 µM
same,TGI,[17],19.2 µM
same,TGI,[18],22 µM
same,TGI,[19],25.8 µM
same,TGI,[20],25.9 µM
same,TGI,[21],12.4 µM
same,TGI,[22],> 100 µM
same,TGI,[23],10.2 µM
same,TGI,[24],30.8 µM
same,TGI,[25],7.58 µM
same,TGI,[26],21.2 µM
same,TGI,[27],21.5 µM
same,TGI,[28],11.2 µM
same,TGI,[29],14.4 µM
same,TGI,[30],10.1 µM
same,TGI,[31],37.4 µM
same,TGI,[32],22.4 µM
same,TGI,[33],> 40 µM
same,TGI,[34],22.8 µM
same,TGI,[35],19.1 µM
same,TGI,[36],9.75 µM
same,TGI,[37],> 100 µM
same,TGI,[38],22.7 µM
same,TGI,[39],24.3 µM
same,TGI,[40],16.4 µM
same,TGI,[41],17.9 µM
same,TGI,[42],> 100 µM
same,TGI,[43],21.3 µM
same,TGI,[44],35.3 µM
same,TGI,[45],31.1 µM
same,TGI,[46],20.4 µM
same,TGI,[47],34.2 µM
same,TGI,[48],34.4 µM
same,TGI,[49],43 µM
same,TGI,[50],22.6 µM
same,TGI,[51],6.01 µM
same,TGI,[52],34.6 µM
same,TGI,[53],33.5 µM
same,TGI,[54],23.8 µM
same,TGI,[55],21.3 µM
same,TGI,[56],70.7 µM
same,TGI,[57],29.1 µM
same,TGI,[58],15.9 µM
same,TGI,[59],31 µM
O=C(c1ccc(Cl)c(Cl)c1)N(Cc1cccnc1)C(=S)N(Cc1cccnc1)C(=O)c1ccc(Cl)c(Cl)c1,TGI,[1],83.4 µM
same,TGI,[2],> 100 µM
same,TGI,[3],79.6 µM
same,TGI,[4],> 100 µM
same,TGI,[5],> 100 µM
same,TGI,[6],64.2 µM
same,TGI,[7],> 100 µM
same,TGI,[8],67.1 µM
same,TGI,[9],> 100 µM
same,TGI,[10],91.5 µM
same,TGI,[11],75.7 µM
same,TGI,[12],54.2 µM
same,TGI,[13],> 100 µM
same,TGI,[14],> 100 µM
same,TGI,[15],> 100 µM
same,TGI,[16],> 100 µM
same,TGI,[17],52.2 µM
same,TGI,[18],45.5 µM
same,TGI,[19],88.4 µM
same,TGI,[20],33.2 µM
same,TGI,[21],> 100 µM
same,TGI,[22],> 100 µM
same,TGI,[23],> 100 µM
same,TGI,[24],65.8 µM
same,TGI,[25],41.9 µM
same,TGI,[26],78.3 µM
same,TGI,[27],84.5 µM
same,TGI,[28],65.1 µM
same,TGI,[29],> 100 µM
same,TGI,[30],39.8 µM
same,TGI,[31],> 100 µM
same,TGI,[32],> 100 µM
same,TGI,[33],> 100 µM
same,TGI,[34],> 100 µM
same,TGI,[35],> 100 µM
same,TGI,[36],> 100 µM
same,TGI,[37],> 100 µM
same,TGI,[38],83.6 µM
same,TGI,[40],> 100 µM
same,TGI,[41],36.2 µM
same,TGI,[42],> 100 µM
same,TGI,[43],> 100 µM
same,TGI,[44],> 100 µM
same,TGI,[45],> 100 µM
same,TGI,[46],52.9 µM
same,TGI,[47],95.7 µM
same,TGI,[48],> 100 µM
same,TGI,[49],> 100 µM
same,TGI,[50],99.1 µM
same,TGI,[51],32.2 µM
same,TGI,[52],71.7 µM
same,TGI,[53],79.4 µM
same,TGI,[54],79.8 µM
same,TGI,[55],> 100 µM
same,TGI,[56],> 100 µM
same,TGI,[57],> 100 µM
same,TGI,[58],63.4 µM
same,TGI,[59],> 100 µM
O=c1cc(-c2ccc(O)c(O)c2-c2c(O)cc3oc(-c4ccc(O)c(O)c4)cc(=O)c3c2O)oc2cc(O)cc(O)c12,outcome,[1],inactive
same,outcome,[2],inactive
same,outcome,[3],inactive
same,outcome,[4],inactive
same,outcome,[5],inactive
same,outcome,[6],inactive
same,outcome,[7],inactive
same,outcome,[8],inactive
same,outcome,[9],inactive
same,outcome,[10],inactive
same,outcome,[11],inactive
same,outcome,[12],inactive
same,outcome,[13],inactive
same,outcome,[14],inactive
same,outcome,[15],inactive
same,outcome,[16],inactive
same,outcome,[17],inactive
same,outcome,[18],inactive
same,outcome,[19],inactive
same,outcome,[20],inactive
same,outcome,[21],inactive
same,outcome,[22],inactive
same,outcome,[23],inactive
same,outcome,[24],inactive
same,outcome,[25],inactive
same,outcome,[26],inactive
same,outcome,[27],inactive
same,outcome,[28],inactive
same,outcome,[29],inactive
same,outcome,[30],inactive
same,outcome,[31],inactive
same,outcome,[32],inactive
same,outcome,[33],inactive
same,outcome,[34],inactive
same,outcome,[35],inactive
same,outcome,[37],inactive
same,outcome,[38],inactive
same,outcome,[39],inactive
same,outcome,[40],inactive
same,outcome,[41],inactive
same,outcome,[43],inactive
same,outcome,[44],inactive
same,outcome,[45],inactive
same,outcome,[46],inactive
same,outcome,[47],inactive
same,outcome,[48],inactive
same,outcome,[49],inactive
same,outcome,[50],inactive
same,outcome,[51],inactive
same,outcome,[52],inactive
same,outcome,[53],inactive
same,outcome,[54],inactive
same,outcome,[55],inactive
same,outcome,[56],inactive
same,outcome,[57],inactive
same,outcome,[58],inactive
same,outcome,[59],inactive
COc1ccc(N2C(=O)CC(=O)N(C(=O)CCCCCCCCC(=O)N3C(=O)CC(=O)N(c4ccc(OC)cc4)C3=S)C2=S)cc1,TGI,[1],> 100 µM
same,TGI,[2],> 100 µM
same,TGI,[3],> 100 µM
same,TGI,[4],> 100 µM
same,TGI,[5],> 100 µM
same,TGI,[6],> 100 µM
same,TGI,[7],> 100 µM
same,TGI,[8],> 100 µM
same,TGI,[9],> 100 µM
same,TGI,[10],> 100 µM
same,TGI,[11],> 100 µM
same,TGI,[12],> 100 µM
same,TGI,[13],> 100 µM
same,TGI,[14],> 100 µM
same,TGI,[15],> 100 µM
same,TGI,[16],> 100 µM
same,TGI,[17],> 100 µM
same,TGI,[18],> 100 µM
same,TGI,[19],> 100 µM
same,TGI,[20],> 100 µM
same,TGI,[21],> 100 µM
same,TGI,[22],> 100 µM
same,TGI,[23],> 100 µM
same,TGI,[24],> 100 µM
same,TGI,[25],> 100 µM
same,TGI,[26],> 100 µM
same,TGI,[27],> 100 µM
same,TGI,[28],> 100 µM
same,TGI,[29],> 100 µM
same,TGI,[30],> 100 µM
same,TGI,[31],> 100 µM
same,TGI,[32],> 100 µM
same,TGI,[33],> 100 µM
same,TGI,[34],> 100 µM
same,TGI,[35],> 100 µM
same,TGI,[36],> 100 µM
same,TGI,[37],> 100 µM
same,TGI,[38],> 100 µM
same,TGI,[40],> 100 µM
same,TGI,[41],> 100 µM
same,TGI,[42],> 100 µM
same,TGI,[43],> 100 µM
same,TGI,[44],> 100 µM
same,TGI,[45],> 100 µM
same,TGI,[46],> 100 µM
same,TGI,[47],> 100 µM
same,TGI,[48],> 100 µM
same,TGI,[49],> 100 µM
same,TGI,[50],> 100 µM
same,TGI,[51],> 100 µM
same,TGI,[52],> 100 µM
same,TGI,[53],> 100 µM
same,TGI,[54],> 100 µM
same,TGI,[55],> 100 µM
same,TGI,[56],> 100 µM
same,TGI,[57],> 100 µM
same,TGI,[58],> 100 µM
same,TGI,[59],> 100 µM
